Measurements taken from ChEMBL document CHEMBL5104220, “Development of Gilteritinib-Based Chimeric Small Molecules that Potently Induce Degradation of FLT3-ITD Protein” (ACS Med Chem Lett, 2022).
Calls of active or inactive are those of the source. The calls are words filed in the database; no cut-off is given here.

Columns and labels:
[1] = biological target: T1, Signal transducer and activator of transcription 5A (Homo sapiens) (UniProt P42229); test: Inhibition of STAT5 phosphorylation in human MV4-11 cells at 0.03 to 3 uM incubated for 24 hrs by Western blot analysis; type: cell-based; settings: dose 0.03-3 µM
T1 sequence (whole entry): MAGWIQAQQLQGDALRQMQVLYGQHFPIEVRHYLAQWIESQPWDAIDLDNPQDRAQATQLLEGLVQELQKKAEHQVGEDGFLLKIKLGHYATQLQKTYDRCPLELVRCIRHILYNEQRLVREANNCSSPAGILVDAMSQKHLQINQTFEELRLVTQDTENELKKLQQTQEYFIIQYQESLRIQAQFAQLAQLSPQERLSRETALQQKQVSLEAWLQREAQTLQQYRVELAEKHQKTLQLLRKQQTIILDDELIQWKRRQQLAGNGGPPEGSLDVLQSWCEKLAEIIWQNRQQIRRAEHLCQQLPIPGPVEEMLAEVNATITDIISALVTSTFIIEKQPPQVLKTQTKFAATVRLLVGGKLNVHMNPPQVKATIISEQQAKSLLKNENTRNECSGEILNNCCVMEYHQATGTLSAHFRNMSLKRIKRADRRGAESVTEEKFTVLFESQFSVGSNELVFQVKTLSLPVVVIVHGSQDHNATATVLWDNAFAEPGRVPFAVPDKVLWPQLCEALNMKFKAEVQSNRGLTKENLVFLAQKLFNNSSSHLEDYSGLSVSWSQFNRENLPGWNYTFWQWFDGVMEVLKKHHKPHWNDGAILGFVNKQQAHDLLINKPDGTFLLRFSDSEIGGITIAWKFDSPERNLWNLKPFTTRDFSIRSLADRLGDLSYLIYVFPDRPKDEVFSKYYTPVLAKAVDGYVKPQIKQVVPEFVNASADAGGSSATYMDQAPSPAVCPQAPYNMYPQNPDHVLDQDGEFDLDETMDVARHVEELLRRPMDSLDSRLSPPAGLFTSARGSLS

[2] = test system: Protein cereblon/Receptor-type tyrosine-protein kinase FLT3 (Homo sapiens), P36888+Q96SW2 [UNDEFINED MUTATION]; test: PROTAC activity at CRBN/FLT3-ITD mutant in human MOLM-14 cells assessed as decrease in FLT3 protein expression at 0.03 to 3 uM incubated for 24 hrs by Western blot analysis; type: cell-based; settings: dose 0.03-3 µM
[3] = test system: Protein cereblon/Receptor-type tyrosine-protein kinase FLT3 (Homo sapiens), P36888+Q96SW2 [UNDEFINED MUTATION]; test: PROTAC activity at CRBN/FLT3-ITD mutant in human MV4-11 cells assessed as decrease in FLT3 protein expression at 0.03 to 3 uM incubated for 24 hrs by Western blot analysis; type: cell-based; settings: dose 0.03-3 µM
[4] = test system: Protein cereblon/Receptor-type tyrosine-protein kinase FLT3 (Homo sapiens), P36888+Q96SW2 [UNDEFINED MUTATION]; test: PROTAC activity at CRBN/FLT3-ITD mutant in human MV4-11 cells assessed as inhibition of FLT3 phosphorylation at 0.03 to 3 uM incubated for 24 hrs by Western blot analysis; type: cell-based; settings: dose 0.03-3 µM
[5] = test system: Protein cereblon/Receptor-type tyrosine-protein kinase FLT3 (Homo sapiens), P36888+Q96SW2 [UNDEFINED MUTATION]; test: PROTAC activity at CRBN/FLT3-ITD mutant in human MV4-11 cells assessed as inhibition of STAT5 phosphorylation at 0.03 to 3 uM incubated for 24 hrs by Western blot analysis; type: cell-based; settings: dose 0.03-3 µM
[6] = test system: Protein cereblon/Receptor-type tyrosine-protein kinase FLT3 (Homo sapiens), P36888+Q96SW2 [UNDEFINED MUTATION]; test: PROTAC activity at CRBN/FLT3-ITD mutant in human MOLM-14 cells assessed as decrease in FLT3 mRNA expression at 0.03 to 3 uM incubated for 24 hrs by RT-qPCR analysis; type: cell-based; settings: dose 0.03-3 µM
[7] = test system: Protein cereblon/Receptor-type tyrosine-protein kinase FLT3 (Homo sapiens), P36888+Q96SW2 [UNDEFINED MUTATION]; test: PROTAC activity at CRBN/FLT3-ITD mutant in human MV4-11 cells at 30 nM measured upto 32 hrs in the presence of cycloheximide by Western blot analysis; type: cell-based
[8] = test system: Protein cereblon/Receptor-type tyrosine-protein kinase FLT3 (Homo sapiens), P36888+Q96SW2 [UNDEFINED MUTATION]; test: PROTAC activity at CRBN/FLT3-ITD mutant in human MV4-11 cells assessed as decrease in FLT3 protein expression at 0.3 to 3 uM incubated for 18 hrs in the presence of bafilomycin A1 by Western blot analysis; type: cell-based; settings: dose 0.3-3 µM
[9] = test system: MV4-11; test: Antiproliferative activity against human MV4-11 cells harboring FLT3-ITD mutant assessed as inhibition of cell proliferation incubated for 72 hrs by WST-8 assay; type: functional, cell-based; settings: MV4-11, 72 h
[10] = test system: MOLM-14; test: Antiproliferative activity against human MOLM-14 cells harboring FLT3-ITD mutant assessed as inhibition of cell proliferation incubated for 72 hrs by WST-8 assay; type: functional, cell-based; settings: MOLM-14, 72 h
[11] = test system: Protein cereblon/Receptor-type tyrosine-protein kinase FLT3 (Homo sapiens), P36888+Q96SW2 [UNDEFINED MUTATION]; test: PROTAC activity at CRBN/FLT3-ITD mutant in human MOLM-14 cells assessed as decrease in IKZF1 protein expression at 0.01 to 0.3 uM incubated for 24 hrs by Western blot analysis; type: cell-based; settings: dose 0.01-0.3 µM
[12] = test system: Protein cereblon/Receptor-type tyrosine-protein kinase FLT3 (Homo sapiens), P36888+Q96SW2 [UNDEFINED MUTATION]; test: PROTAC activity at CRBN/FLT3-ITD mutant in human MV4-11 cells assessed as decrease in IKZF1 protein expression at 0.01 to 0.3 uM incubated for 24 hrs by Western blot analysis; type: cell-based; settings: dose 0.01-0.3 µM
[13] = test system: Protein cereblon/Receptor-type tyrosine-protein kinase FLT3 (Homo sapiens), P36888+Q96SW2 [UNDEFINED MUTATION]; test: PROTAC activity at CRBN/FLT3-ITD mutant in human MV4-11 cells assessed as decrease in LTK protein expression by Western blot analysis; type: cell-based
[14] = test system: Protein cereblon/Receptor-type tyrosine-protein kinase FLT3 (Homo sapiens), P36888+Q96SW2 [UNDEFINED MUTATION]; test: PROTAC activity at CRBN/FLT3-ITD mutant in human MV4-11 cells assessed as decrease in ALK protein expression by Western blot analysis; type: cell-based
[15] = test system: Protein cereblon/Receptor-type tyrosine-protein kinase FLT3 (Homo sapiens), P36888+Q96SW2 [UNDEFINED MUTATION]; test: PROTAC activity at CRBN/FLT3-ITD mutant in human MOLM-14 cells assessed as decrease in LTK protein expression by Western blot analysis; type: cell-based
[16] = test system: Protein cereblon/Receptor-type tyrosine-protein kinase FLT3 (Homo sapiens), P36888+Q96SW2 [UNDEFINED MUTATION]; test: PROTAC activity at CRBN/FLT3-ITD mutant in human MOLM-14 cells assessed as decrease in ALK protein expression by Western blot analysis; type: cell-based

Chain of Protein cereblon/Receptor-type tyrosine-protein kinase FLT3 (Homo sapiens), P36888+Q96SW2 [UNDEFINED MUTATION] (P36888 whole entry, looked up, stated change not applied): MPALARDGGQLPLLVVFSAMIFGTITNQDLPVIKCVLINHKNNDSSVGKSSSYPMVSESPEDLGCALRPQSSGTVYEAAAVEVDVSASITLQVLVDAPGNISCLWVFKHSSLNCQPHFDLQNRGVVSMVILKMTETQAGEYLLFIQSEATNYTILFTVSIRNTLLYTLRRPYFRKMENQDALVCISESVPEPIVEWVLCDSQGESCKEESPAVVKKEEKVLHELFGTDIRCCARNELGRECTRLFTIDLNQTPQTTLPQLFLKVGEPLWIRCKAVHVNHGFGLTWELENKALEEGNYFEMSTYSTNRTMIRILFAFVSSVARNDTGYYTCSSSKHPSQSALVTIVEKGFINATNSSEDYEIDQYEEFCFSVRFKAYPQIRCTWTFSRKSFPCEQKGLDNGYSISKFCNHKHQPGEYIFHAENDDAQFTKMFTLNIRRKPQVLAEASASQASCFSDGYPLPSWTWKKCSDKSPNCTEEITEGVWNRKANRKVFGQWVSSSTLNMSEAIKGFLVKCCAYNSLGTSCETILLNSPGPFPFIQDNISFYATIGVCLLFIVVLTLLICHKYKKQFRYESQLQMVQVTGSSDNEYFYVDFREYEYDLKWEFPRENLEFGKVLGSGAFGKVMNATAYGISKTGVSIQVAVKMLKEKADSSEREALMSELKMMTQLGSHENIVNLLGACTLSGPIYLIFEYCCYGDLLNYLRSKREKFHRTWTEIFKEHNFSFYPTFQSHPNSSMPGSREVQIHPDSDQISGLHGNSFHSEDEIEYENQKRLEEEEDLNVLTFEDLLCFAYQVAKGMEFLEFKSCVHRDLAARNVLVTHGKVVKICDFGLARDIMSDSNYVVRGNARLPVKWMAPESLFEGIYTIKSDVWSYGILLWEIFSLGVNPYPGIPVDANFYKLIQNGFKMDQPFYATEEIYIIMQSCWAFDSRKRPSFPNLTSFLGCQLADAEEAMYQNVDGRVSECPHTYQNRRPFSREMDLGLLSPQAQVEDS
Chain of Protein cereblon/Receptor-type tyrosine-protein kinase FLT3 (Homo sapiens), P36888+Q96SW2 [UNDEFINED MUTATION] (Q96SW2 whole entry, looked up, stated change not applied): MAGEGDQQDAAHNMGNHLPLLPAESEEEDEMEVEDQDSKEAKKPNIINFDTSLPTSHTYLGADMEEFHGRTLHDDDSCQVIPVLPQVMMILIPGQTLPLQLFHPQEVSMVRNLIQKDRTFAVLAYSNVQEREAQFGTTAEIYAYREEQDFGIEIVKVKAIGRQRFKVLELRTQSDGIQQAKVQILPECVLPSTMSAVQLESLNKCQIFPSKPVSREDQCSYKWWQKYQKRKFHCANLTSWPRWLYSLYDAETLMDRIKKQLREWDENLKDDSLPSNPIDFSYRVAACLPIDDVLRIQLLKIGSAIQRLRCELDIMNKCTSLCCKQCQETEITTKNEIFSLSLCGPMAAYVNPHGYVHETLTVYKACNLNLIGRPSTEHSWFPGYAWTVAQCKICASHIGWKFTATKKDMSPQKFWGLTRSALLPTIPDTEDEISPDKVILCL

CC1(COc2ccc3c(c2)ncn3-c2ccc3cccc(N4CCC(N)CC4)c3n2)COC1
inhibition [1]: Active

CCc1nc(C(N)=O)c(Nc2ccc(N3CCC(N4CCN(CC5CCN(C(=O)CCOCCOCCOCCOCCNc6cccc7c6C(=O)N(C6CCC(=O)NC6=O)C7=O)CC5)CC4)CC3)c(OC)c2)nc1NC1CCOCC1 (stereo unspecified)
Activity [2]: Active | Activity [3]: Active | Activity [4]: Active | Activity [5]: Active

CNC(=O)c1cc(Oc2ccc(NC(=O)Nc3ccc(Cl)c(C(F)(F)F)c3)cc2)ccn1
inhibition [1]: Active

CCc1nc(C(N)=O)c(Nc2ccc(N3CCC(N4CCN(C)CC4)CC3)c(OC)c2)nc1NC1CCOCC1
inhibition [1]: Active

CC(C)(C)c1cc(NC(=O)Nc2ccc(-c3cn4c(n3)sc3cc(OCCN5CCOCC5)ccc34)cc2)no1
inhibition [1]: Active

CCc1nc(C(N)=O)c(Nc2ccc(N3CCC(N4CCN(CC5CCN(C(=O)CCOCCOCCNc6cccc7c6C(=O)N(C6CCC(=O)NC6=O)C7=O)CC5)CC4)CC3)c(OC)c2)nc1NC1CCOCC1 (stereo unspecified)
Activity [2]: Active | Activity [3]: Active | Activity [6]: Active | Activity [7]: Active | Activity [8]: Active | IC50 [9]: 0.9 nM | IC50 [10]: 2.8 nM | Activity [11]: Active | Activity [12]: Active | Activity [13]: Active | Activity [14]: Active | Activity [15]: Active | Activity [16]: Active
